Data on 23 compounds can be found in patent publication US9546152B2 (MERCK SHARP & DOHME CORP., priority 2012, dated 2017).

Where only a bound is given, the exact number is not on record here.

Assay [1] deals with T1, human orexin-2 receptor (Homo sapiens (Human), UniProt O43614). Nature of the assay: FLIPR Ca2+ Flux Assay, orexin-2 receptor. The assay is classed as cell-based. The settings on record: CHO cells expressing the human orexin-2 receptor; agonist 70 pM Ala-6,12 human orexin-A; read-out: hOX2R FLIPR IC50. In short, it runs like this: (§1)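 CHO cells expressing rat OX1 or human OX2 receptor, Fluo-4AM loaded; compounds preincubated 5 min, then challenged with 70 pM Ala-6,12 human orexin-A in HBSS/20 mM HEPES/0.1% BSA/2.5 mM probenecid, pH 7.4. FLIPR fluorescence peak height over 5 min compared with agonist-only response.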
T1 sequence (O43614 whole entry): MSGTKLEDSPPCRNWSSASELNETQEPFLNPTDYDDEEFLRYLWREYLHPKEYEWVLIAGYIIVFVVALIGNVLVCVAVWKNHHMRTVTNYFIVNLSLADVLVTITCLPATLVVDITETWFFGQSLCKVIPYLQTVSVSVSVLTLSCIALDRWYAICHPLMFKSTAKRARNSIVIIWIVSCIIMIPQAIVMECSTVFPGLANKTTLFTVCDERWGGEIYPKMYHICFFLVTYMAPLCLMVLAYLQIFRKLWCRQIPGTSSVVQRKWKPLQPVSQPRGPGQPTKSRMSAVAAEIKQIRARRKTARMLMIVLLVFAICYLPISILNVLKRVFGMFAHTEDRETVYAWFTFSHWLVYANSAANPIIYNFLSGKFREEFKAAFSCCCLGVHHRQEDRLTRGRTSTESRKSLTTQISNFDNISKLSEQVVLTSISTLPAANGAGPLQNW
(In general: Calcium flux is commonly read through the fluorescence of an indicator in the cells.)

Another assay addresses rat orexin-1 receptor (Rattus norvegicus (Rat), UniProt P56718). Nature of the assay: FLIPR Ca2+ Flux Assay, orexin-1 receptor. Type of assay: cell-based. The conditions noted are these: CHO cells expressing the rat orexin-1 receptor; agonist 70 pM Ala-6,12 human orexin-A; read-out: hOX1R FLIPR IC50. In short, it runs like this: as §1
In assay [2] the target is T1, human orexin-2 receptor. Nature of the assay: radioligand binding assay, orexin-2 receptor. The conditions noted are these: membranes prepared from CHO cells expressing the OX2 receptor; read-out: hOX2R BIND hKi.

rat orexin-1 receptor, sequence (P56718 whole entry): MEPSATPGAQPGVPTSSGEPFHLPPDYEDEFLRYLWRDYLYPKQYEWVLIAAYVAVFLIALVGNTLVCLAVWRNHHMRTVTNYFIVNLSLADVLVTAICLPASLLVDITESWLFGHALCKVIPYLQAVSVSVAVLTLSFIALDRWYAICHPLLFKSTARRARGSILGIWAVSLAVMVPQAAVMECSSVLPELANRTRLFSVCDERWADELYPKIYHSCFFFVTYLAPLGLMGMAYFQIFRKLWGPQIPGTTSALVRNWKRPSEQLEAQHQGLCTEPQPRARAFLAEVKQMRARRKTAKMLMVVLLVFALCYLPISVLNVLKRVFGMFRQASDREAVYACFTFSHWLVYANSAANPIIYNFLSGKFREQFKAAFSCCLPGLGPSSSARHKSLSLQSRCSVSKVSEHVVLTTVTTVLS

A word on the IC50: it is the concentration at which inhibition is half-maximal. `CSc1ccccc1C(=O)N1C[C@H](Oc2nccc(C#N)c2C)CC[C@H]1C` [Example 61, 3-methyl-2-{[(3R,6R)-6-methyl-1-{[2-(methylsulfanyl)phenyl]carbonyl}piperidin-3-yl]oxy}pyridine-4-carbonitrile]: the IC50 turned out to be 35 nM on human orexin-2 receptor [1] and 7950 nM at rat orexin-1 receptor. Besides, the Ki at human orexin-2 receptor [2] came to 1.4 nM.

With `Cc1c(C#N)ccnc1O[C@@H]1CC[C@@H](C)N(C(=O)c2ccc(OCF)cc2-n2nccn2)C1` [Example 64, 2-{[(3R,6R)-1-{[4-(fluoromethoxy)-2-(2H-1,2,3-triazol-2-yl)phenyl]carbonyl}-6-methylpiperidin-3-yl]oxy}-3-methylpyridine-4-carbonitrile], the IC50 is 35 nM at human orexin-2 receptor [1] and 4490 nM on rat orexin-1 receptor. For the same compound, the Ki at human orexin-2 receptor [2] was 3.3 nM.

As to `Cc1c(C#N)ccnc1O[C@@H]1CC[C@@H](C)N(C(=O)c2cnc(Cl)cc2-n2nccn2)C1` [Example 67, 2-{[(3R,6R)-1-{[6-chloro-4-(2H-1,2,3-triazol-2-yl)pyridin-3-yl]carbonyl}-6-methylpiperidin-3-yl]oxy}-3-methylpyridine-4-carbonitrile], the half-inhibitory concentration (IC50) is 35 nM on human orexin-2 receptor [1] and more than 10000 nM at rat orexin-1 receptor. The Ki at human orexin-2 receptor [2] amounted to 4.7 nM.

In the case of `CCOc1ncccc1C(=O)N1C[C@H](Oc2nccc(C#N)c2C)CC[C@H]1C` [Example 68], the IC50 at human orexin-2 receptor [1] was 36 nM; at rat orexin-1 receptor, more than 10000 nM. The Ki at human orexin-2 receptor [2] was determined as 5.9 nM.

In the case of `Cc1c(C#N)ccnc1O[C@@H]1CC[C@@H](C)N(C(=O)c2ccccc2-n2ncnn2)C1` [Example 70, 3-methyl-2-{[(3R,6R)-6-methyl-1-{[2-(2H-tetrazol-2-yl)phenyl]carbonyl}piperidin-3-yl]oxy}pyridine-4-carbonitrile], the concentration for half-maximal inhibition (IC50) worked out at 7.7 nM on human orexin-2 receptor [1] and 4590 nM at rat orexin-1 receptor. The Ki on human orexin-2 receptor [2] turned out to be 1.6 nM.

On to `Cc1c(C#N)ccnc1O[C@@H]1CC[C@@H](C)N(C(=O)c2cc(C#N)ccc2-n2nccn2)C1` [Example 71, 2-{[(3R,6R)-1-{[5-cyano-2-(2H-1,2,3-triazol-2-yl)phenyl]carbonyl}-6-methylpiperidin-3-yl]oxy}-3-methylpyridine-4-carbonitrile], for which the values for the half-maximal inhibitory concentration (IC50) on human orexin-2 receptor [1] and at rat orexin-1 receptor were 40 nM and 1850 nM, respectively. In addition, the Ki at human orexin-2 receptor [2] came out at 5.5 nM.

For `Cc1c(C#N)ccnc1O[C@@H]1CC[C@@H](C)N(C(=O)c2ccc(Cl)nc2-n2nccn2)C1` [Example 72, 2-{[(3R,6R)-1-{[6-chloro-2-(2H-1,2,3-triazol-2-yl)pyridin-3-yl]carbonyl}-6-methylpiperidin-3-yl]oxy}-3-methylpyridine-4-carbonitrile], the IC50 on human orexin-2 receptor [1] is 75 nM; at rat orexin-1 receptor, more than 10000 nM. For the same compound, the Ki at human orexin-2 receptor [2] was determined as 3.5 nM.

In the case of `Cc1c(C#N)ccnc1O[C@@H]1CC[C@@H](C)N(C(=O)c2sccc2-c2ncccn2)C1` [Example 75, 3-methyl-2-({(3R,6R)-6-methyl-1-[(3-pyrimidin-2-ylthiophen-2-yl)carbonyl]piperidin-3-yl}oxy)pyridine-4-carbonitrile], the IC50 turned out to be 15 nM on human orexin-2 receptor [1] and 1400 nM on rat orexin-1 receptor. The Ki at human orexin-2 receptor [2] worked out at 0.8 nM.

On to `Cc1ccc(C(=O)N2C[C@H](Oc3nccc(C#N)c3C)CC[C@H]2C)c(-c2ncccn2)c1` [Example 76, 3-methyl-2-({(3R,6R)-6-methyl-1-[(4-methyl-2-pyrimidin-2-ylphenyl)carbonyl]piperidin-3-yl}oxy)pyridine-4-carbonitrile], for which the IC50 at human orexin-2 receptor [1] amounted to 37 nM; at rat orexin-1 receptor it was 1270 nM. The Ki on human orexin-2 receptor [2] worked out at 2.1 nM.

As for `COc1ccc(C(=O)N2C[C@H](Oc3nccc(C#N)c3C)CC[C@H]2C)c(-c2ccccc2)n1` [Example 78, 2-({(3R,6R)-1-[(6-methoxy-2-phenylpyridin-3-yl)carbonyl]-6-methylpiperidin-3-yl}oxy)-3-methylpyridine-4-carbonitrile], the IC50 was 92 nM on human orexin-2 receptor [1] and 1260 nM at rat orexin-1 receptor. For the same compound, at human orexin-2 receptor [2], the Ki was 1.2 nM.

Take `COc1ccc(C(=O)N2C[C@H](Oc3nccc(C#N)c3C)CC[C@H]2C)c(-c2ccnn2C)n1` [Example 79, 2-{[(3R,6R)-1-{[6-methoxy-2-(1-methyl-1H-pyrazol-5-yl)pyridin-3-yl]carbonyl}-6-methylpiperidin-3-yl]oxy}-3-methylpyridine-4-carbonitrile]: the IC50 is 85.6 nM on human orexin-2 receptor [1] and 10000 nM on rat orexin-1 receptor. The Ki on human orexin-2 receptor [2] was found to be 9.9 nM.

Consider `COc1ccc(C(=O)N2C[C@H](Oc3nccc(C#N)c3C)CC[C@H]2C)c(-c2ccn(C)n2)n1` [Example 81, 2-{[(3R,6R)-1-{[6-methoxy-2-(1-methyl-1H-pyrazol-3-yl)pyridin-3-yl]carbonyl}-6-methylpiperidin-3-yl]oxy}-3-methylpyridine-4-carbonitrile], for which the IC50 is 64.6 nM on human orexin-2 receptor [1] and 10000 nM at rat orexin-1 receptor. Besides, at human orexin-2 receptor [2], the Ki is 8.4 nM.

In the case of `COc1ccc(C(=O)N2C[C@H](Oc3nccc(C#N)c3C)CC[C@H]2C)c(-c2cccnc2)n1` [Example 82, 2-({(3R,6R)-1-[(6-methoxy-2,3′-bypyridin-3-yl)carbonyl]-6-methylpiperidin-3-yl}oxy)-3-methylpyridine-4-carbonitrile], the IC50 came to 55.4 nM on human orexin-2 receptor [1] and 8410 nM at rat orexin-1 receptor. Besides, the Ki at human orexin-2 receptor [2] turned out to be 2.4 nM.

In the case of `COc1ccc(C(=O)N2C[C@H](Oc3nccc(C#N)c3C)CC[C@H]2C)c(-c2ccccn2)n1` [Example 83, 2-({(3R,6R)-1-[(6-methoxy-2,2′-bypyridin-3-yl)carbonyl]-6-methylpiperidin-3-yl}oxy)-3-methylpyridine-4-carbonitrile], the IC50 at human orexin-2 receptor [1] was 64.6 nM; at rat orexin-1 receptor it was 10000 nM. At human orexin-2 receptor [2], the Ki amounted to 0.84 nM.

Take `COc1ccc(C(=O)N2C[C@H](Oc3nccc(C#N)c3C)CC[C@H]2C)c(SC)n1` [Example 84, 2-{[(3R,6R)-1-{[6-Methoxy-2-(methylsulfanyl)pyridin-3-yl]carbonyl}-6-methylpiperidin-3-yl]oxy}-3-methylpyridine-4-carbonitrile]: the figures for the IC50 on human orexin-2 receptor [1] and at rat orexin-1 receptor were 22 nM and more than 10000 nM, respectively. In addition, the Ki on human orexin-2 receptor [2] is 2 nM.

`COc1ccc(C(=O)N2C[C@H](Oc3nccc(C#N)c3C)CC[C@H]2C)c(N(C)C)n1` [Example 87, 2-{[(3R,6R)-1-{[2-(Dimethylamino)-6-methoxypyridin-3-yl]carbonyl}-6-methylpiperidin-3-yl]oxy}-3-methylpyridine-4-carbonitrile]: the 50% inhibitory concentration (IC50) at human orexin-2 receptor [1] was 69 nM; at rat orexin-1 receptor, more than 10000 nM. The Ki at human orexin-2 receptor [2] worked out at 9 nM.

For `Cc1c(C#N)ccnc1O[C@@H]1CC[C@@H](C)N(C(=O)c2ccc(OCF)nc2-n2nccn2)C1` [Example 88, 2-{[(3R,6R)-1-{[6-(Fluoromethoxy)-2-(2H-1,2,3-triazol-2-yl)pyridin-3-yl]carbonyl}-6-methylpiperidin-3-yl]oxy}-3-methylpyridine-4-carbonitrile], the 50% inhibitory concentration (IC50) is 58 nM at human orexin-2 receptor [1] and more than 10000 nM at rat orexin-1 receptor. On human orexin-2 receptor [2], the Ki came out at 9.2 nM.

Turning to `Cc1c(C#N)ccnc1O[C@@H]1CC[C@@H](C)N(C(=O)c2ccc(Br)nc2-n2nccn2)C1` [Example 89, 2-{[(3R,6R)-1-{[6-Bromo-2-(2H-1,2,3-triazol-2-yl)pyridin-3-yl]carbonyl}-6-methylpiperidin-3-yl]oxy}-3-methylpyridine-4-carbonitrile], the results for the 50% inhibitory concentration (IC50) at human orexin-2 receptor [1] and at rat orexin-1 receptor were 29 nM and more than 10000 nM, respectively. Also, the Ki at human orexin-2 receptor [2] was 5.1 nM.

As for `C=Cc1ccc(C(=O)N2C[C@H](Oc3nccc(C#N)c3C)CC[C@H]2C)c(-n2nccn2)n1` [Example 90, 2-{[(3R,6R)-1-{[6-ethenyl-2-(2H-1,2,3-triazol-2-yl)pyridin-3-yl]carbonyl}-6-methylpiperidin-3-yl]oxy}-3-methylpyridine-4-carbonitrile], the figures for the half-maximal inhibitory concentration (IC50) on human orexin-2 receptor [1] and at rat orexin-1 receptor were 88 nM and more than 10000 nM, respectively. Further, the Ki on human orexin-2 receptor [2] worked out at 12.9 nM.

As to `C[C@@H]1CC[C@@H](Oc2nccc(C#N)c2Cl)CN1C(=O)c1ccccc1-n1nccn1` [Example 91, 3-Chloro-2-{[(3R,6R)-6-methyl-1-{[2-(2H-1,2,3-triazol-2-yl)phenyl]carbonyl}piperidin-3-yl]oxy}pyridine-4-carbonitrile], the IC50 on human orexin-2 receptor [1] turned out to be 8 nM; at rat orexin-1 receptor, 1600 nM. Further, the Ki at human orexin-2 receptor [2] is 0.8 nM.

For the compound `C[C@@H]1CC[C@@H](Oc2nccc(C#N)c2C#N)CN1C(=O)c1ccccc1-n1nccn1` [Example 94, 2-{[(3R,6R)-6-methyl-1-{[2-(2H-1,2,3-triazol-2-yl)phenyl]carbonyl}piperidin-3-yl]oxy}pyridine-3,4-dicarbonitrile], the half-inhibitory concentration (IC50) is 40 nM at human orexin-2 receptor [1] and more than 10000 nM on rat orexin-1 receptor. In addition, the Ki on human orexin-2 receptor [2] was determined as 4.4 nM.

`CSc1c(C#N)ccnc1O[C@@H]1CC[C@@H](C)N(C(=O)c2ccccc2-n2nccn2)C1` [Example 95, 3-(Methylsulfanyl)-2-{[(3R,6R)-6-methyl-1-{[2-(2H-1,2,3-triazol-2-yl)phenyl]carbonyl}piperidin-3-yl]oxy}pyridine-4-carbonitrile]: the half-maximal inhibitory concentration (IC50) amounted to 6 nM at human orexin-2 receptor [1] and 306 nM on rat orexin-1 receptor. In addition, on human orexin-2 receptor [2], the Ki was found to be 0.1 nM.

Turning to `COc1c(C#N)ccnc1O[C@@H]1CC[C@@H](C)N(C(=O)c2ccccc2-n2nccn2)C1` [Example 96, 3-Methoxy-2-{[(3R,6R)-6-methyl-1-{[2-(2H-1,2,3-triazol-2-yl)phenyl]carbonyl}piperidin-3-yl]oxy}pyridine-4-carbonitrile], the IC50 at human orexin-2 receptor [1] amounted to 9 nM; at rat orexin-1 receptor, 1260 nM. In addition, the Ki at human orexin-2 receptor [2] is 0.3 nM.
